Data as given in PubChem BioAssay AID248 (DTP/NCI, 2004).
Several values for one entry are separate records, joined by “and”; a condition that tells them apart may be missing. Equal entries are not always repeated. Inconclusive results and toxic doses are left out. Rule as the data show it: active = T/C of 150% or more; inactive = T/C below 125%.

System: L1210 leukemia ip in BDF1 mice, survival T/C
Assay: NCI In Vivo Anticancer Drug Screen. Data for tumor model L1210 Leukemia (intraperitoneal) in B6D2F1 (BDF1) mice
Settings: endpoint: mean survival time, higher = longer survival
Procedure: The antitumor activity of compounds was measured in mice bearing transplantable tumors. Survival or tumor size were measured and the results are expressed as the measurement made in the treated group (T) divided by the measurement made in the vehicle treated control group (C). The tumor model used in this assay is L1210 Leukemia (intraperitoneal) in B6D2F1 (BDF1) mice

[1] = dose: 100.0 mg/kg/injection, schedule: Q04DX003 (ip), vehicle: Klucel (hydroxypropylcellulose) (HPC)
[2] = dose: 200.0 mg/kg/injection, schedule: Q04DX003 (ip), vehicle: Klucel (hydroxypropylcellulose) (HPC)
[3] = dose: 400.0 mg/kg/injection, schedule: Q04DX003 (ip), vehicle: Klucel (hydroxypropylcellulose) (HPC)
[4] = dose: 100.0 mg/kg/injection, schedule: Q01DX001 (ip), vehicle: saline
[5] = dose: 200.0 mg/kg/injection, schedule: Q01DX001 (ip), vehicle: saline
[6] = dose: 100.0 mg/kg/injection, schedule: Q01DX001 (ip), vehicle: Klucel (hydroxypropylcellulose) (HPC)
[7] = dose: 200.0 mg/kg/injection, schedule: Q01DX001 (ip), vehicle: Klucel (hydroxypropylcellulose) (HPC)
[8] = dose: 400.0 mg/kg/injection, schedule: Q01DX001 (ip), vehicle: Klucel (hydroxypropylcellulose) (HPC)

Measured: T/C

NC(C(=O)O)c1cc(Cl)co1 (stereo not drawn)
inactive: [1] 105 % of control | [2] 105 % of control | [3] 101 % of control

COC1C(O)C(CO)OC1n1cc(F)c(=O)[nH]c1=O (stereo not drawn)
inactive: [4] 107 % of control | [5] 104 % of control | dose: 400.0 mg/kg/injection, schedule: Q01DX001 (ip), vehicle: saline 111 % of control

OCC1OC2OC(c3ccccc3)(c3ccc(OCc4ccccc4)nc3OCc3ccccc3)OC2C1O (stereo not drawn)
inactive: dose: 100.0 mg/kg/injection, schedule: Q01DX001 (ip), vehicle: other 88 % of control | dose: 200.0 mg/kg/injection, schedule: Q01DX001 (ip), vehicle: other 90 % of control | dose: 400.0 mg/kg/injection, schedule: Q01DX001 (ip), vehicle: other 92 % of control

CCC(N)(C(=O)O)C1CCCCC1 (stereo not drawn)
inactive: dose: 100.0 mg/kg/injection, schedule: Q04DX003 (ip), vehicle: saline 96 % of control | dose: 200.0 mg/kg/injection, schedule: Q04DX003 (ip), vehicle: saline 94 % of control | dose: 400.0 mg/kg/injection, schedule: Q04DX003 (ip), vehicle: saline 93 % of control

CC(C)=NNc1ccnc(SCc2ccccc2)n1
inactive: [1] 96 % of control | [2] 97 % of control | [3] 102 % of control

CN(CC(O)CN)c1ccc(Cl)cc1 (stereo not drawn)
inactive: dose: 25.0 mg/kg/injection, schedule: Q01DX001 (ip), vehicle: saline with Tween-80 104 % of control | dose: 50.0 mg/kg/injection, schedule: Q01DX001 (ip), vehicle: saline with Tween-80 101 % of control | dose: 100.0 mg/kg/injection, schedule: Q01DX001 (ip), vehicle: saline with Tween-80 100 % of control and 103 % of control

COc1ccc(OC2CCCCC2OS(C)(=O)=O)cc1 (stereo not drawn)
inactive: [6] 104 % of control | dose: 100.0 mg/kg/injection, schedule: Q01DX009 (ip), vehicle: Klucel (hydroxypropylcellulose) (HPC) 96 % of control | [1] 102 % of control | [7] 103 % of control | dose: 200.0 mg/kg/injection, schedule: Q01DX009 (ip), vehicle: Klucel (hydroxypropylcellulose) (HPC) 104 % of control | [2] 102 % of control | [8] 108 % of control | dose: 400.0 mg/kg/injection, schedule: Q01DX009 (ip), vehicle: Klucel (hydroxypropylcellulose) (HPC) 106 % of control | [3] 101 % of control

O=C1c2ccccc2C(=O)c2c1c(O)c1ccccc1c2O
inactive: dose: 100.0 mg/kg/injection, schedule: Q#A X Z (im), vehicle: other 96 % of control | dose: 100.0 mg/kg/injection, schedule: Q#A X Z (ip), vehicle: other 107 % of control | dose: 100.0 mg/kg/injection, schedule: Q#A X Z (sc), vehicle: other 100 % of control | dose: 200.0 mg/kg/injection, schedule: Q#A X Z (im), vehicle: other 97 % of control | dose: 200.0 mg/kg/injection, schedule: Q#A X Z (ip), vehicle: other 96 % of control | dose: 200.0 mg/kg/injection, schedule: Q#A X Z (sc), vehicle: other 107 % of control | dose: 300.0 mg/kg/injection, schedule: Q#A X Z (im), vehicle: other 94 % of control | dose: 300.0 mg/kg/injection, schedule: Q#A X Z (ip), vehicle: other 92 % of control | dose: 300.0 mg/kg/injection, schedule: Q#A X Z (sc), vehicle: other 97 % of control | dose: 400.0 mg/kg/injection, schedule: Q#A X Z (im), vehicle: other 94 % of control | dose: 400.0 mg/kg/injection, schedule: Q#A X Z (ip), vehicle: other 92 % of control | dose: 400.0 mg/kg/injection, schedule: Q#A X Z (sc), vehicle: other 96 % of control | dose: 500.0 mg/kg/injection, schedule: Q#A X Z (oral), vehicle: other 96 % of control | dose: 750.0 mg/kg/injection, schedule: Q#A X Z (oral), vehicle: other 100 % of control

CCCN(CC#N)CCC
inactive: dose: 3.0 mg/kg/injection, schedule: Q01DX009 (ip), vehicle: Klucel (hydroxypropylcellulose) (HPC) 97 % of control | dose: 6.0 mg/kg/injection, schedule: Q01DX009 (ip), vehicle: Klucel (hydroxypropylcellulose) (HPC) 97 % of control | dose: 6.0 mg/kg/injection, schedule: Q04DX003 (ip), vehicle: Klucel (hydroxypropylcellulose) (HPC) 98 % of control | dose: 12.0 mg/kg/injection, schedule: Q01DX009 (ip), vehicle: Klucel (hydroxypropylcellulose) (HPC) 97 % of control | dose: 12.0 mg/kg/injection, schedule: Q04DX003 (ip), vehicle: Klucel (hydroxypropylcellulose) (HPC) 107 % of control | dose: 25.0 mg/kg/injection, schedule: Q04DX003 (ip), vehicle: Klucel (hydroxypropylcellulose) (HPC) 96 % of control

CC(C)CC1NC(C)(C)N(CC(=O)O)C1=O (stereo not drawn)
inactive: dose: 50.0 mg/kg/injection, schedule: Q01DX001 (ip), vehicle: saline 88 % of control | [5] 99 % of control

COC1OC(COS(C)(=O)=O)C(O)C(OS(C)(=O)=O)C1OS(C)(=O)=O (stereo not drawn)
inactive: dose: 50.0 mg/kg/injection, schedule: Q04DX002 (ip), vehicle: Klucel (hydroxypropylcellulose) (HPC) 93 % of control | dose: 100.0 mg/kg/injection, schedule: Q04DX002 (ip), vehicle: Klucel (hydroxypropylcellulose) (HPC) 93 % of control | dose: 200.0 mg/kg/injection, schedule: Q04DX002 (ip), vehicle: Klucel (hydroxypropylcellulose) (HPC) 101 % of control

CCOC(=O)c1nc(N)[nH]c(=O)c1CCCCc1ccccc1
inactive: dose: 150.0 mg/kg/injection, schedule: Q01DX001 (ip), vehicle: saline with Tween-80 87 % of control | dose: 300.0 mg/kg/injection, schedule: Q01DX001 (ip), vehicle: saline with Tween-80 89 % of control

CC(C)(CO)NCc1ccc(Cl)cc1
inactive: [4] 93 % of control | [5] 97 % of control

O=C1CC(=O)C(Br)=C1Br
inactive: dose: 1.5 mg/kg/injection, schedule: Q04DX003 (ip), vehicle: saline with Tween-80 101 % of control | dose: 3.0 mg/kg/injection, schedule: Q04DX003 (ip), vehicle: saline with Tween-80 105 % of control

COC1OC(CN(CCOS(C)(=O)=O)CCOS(C)(=O)=O)C2OC(C)(C)OC12 (stereo not drawn)
inactive: dose: 50.0 mg/kg/injection, schedule: Q01DX001 (ip), vehicle: Klucel (hydroxypropylcellulose) (HPC) 114 % of control | [6] 108 % of control | [7] 107 % of control | [8] 105 % of control

Cc1ccc(N)c(F)c1
inactive: dose: 100.0 mg/kg/injection, schedule: Q04DX002 (sc), vehicle: olive oil, sesame oil, peanut oil 93 % of control | dose: 200.0 mg/kg/injection, schedule: Q04DX002 (sc), vehicle: olive oil, sesame oil, peanut oil 98 % of control | dose: 400.0 mg/kg/injection, schedule: Q04DX002 (sc), vehicle: olive oil, sesame oil, peanut oil 104 % of control

CC(C)=CC(=O)c1ccccc1
inactive: dose: 100.0 mg/kg/injection, schedule: Q01DX001 (ip), vehicle: acetone 100 % of control | dose: 200.0 mg/kg/injection, schedule: Q01DX001 (ip), vehicle: acetone 94 % of control | dose: 400.0 mg/kg/injection, schedule: Q01DX001 (ip), vehicle: acetone 103 % of control
